Assay results taken from ChEMBL document CHEMBL1933028, “Discovery of cyclic amine-substituted benzoic acids as PPARα agonists” (Bioorg Med Chem Lett, 2012).

Columns and labels:
[1] = tested on: Canis familiaris; assay: Antidyslipidemic activity in high-fat diet fed dog assessed as decrease in total cholesterol at 0.03 mg/kg, po administered QD for 1 week (reference value: 205 +/- 6 mg/dL); assay type: functional, Canis lupus familiaris
[2] = target: T1, Peroxisome proliferator-activated receptor delta (Mus musculus, UniProt P35396); assay: Agonist activity at mouse PPARdelta; assay type: functional
T1 sequence (P35396 whole entry): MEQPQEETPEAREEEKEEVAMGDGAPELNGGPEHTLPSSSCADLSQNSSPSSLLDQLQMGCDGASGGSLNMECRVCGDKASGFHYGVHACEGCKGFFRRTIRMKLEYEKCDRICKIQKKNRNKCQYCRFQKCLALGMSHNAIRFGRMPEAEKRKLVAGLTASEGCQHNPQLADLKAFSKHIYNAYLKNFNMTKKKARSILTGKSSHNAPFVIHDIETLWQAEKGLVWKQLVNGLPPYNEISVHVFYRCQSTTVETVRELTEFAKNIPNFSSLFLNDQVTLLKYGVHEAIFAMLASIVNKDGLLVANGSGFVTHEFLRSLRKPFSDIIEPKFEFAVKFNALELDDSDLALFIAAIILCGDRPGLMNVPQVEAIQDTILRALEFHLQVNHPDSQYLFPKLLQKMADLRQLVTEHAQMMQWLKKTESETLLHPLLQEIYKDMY

[3] = tested on: Canis familiaris; assay: Antidyslipidemic activity in high-fat diet fed dog assessed as decrease in non-HDL cholesterol at 0.03 mg/kg, po administered QD for 1 week (reference value: 75 +/- 5 mg/dL); assay type: functional, Canis lupus familiaris
[4] = target: T2, Peroxisome proliferator-activated receptor alpha (Homo sapiens, UniProt Q07869); assay: Transactivation of human PPARalpha expressed in CHO-K1 cells; assay type: cell-based
T2 sequence (Q07869 whole entry): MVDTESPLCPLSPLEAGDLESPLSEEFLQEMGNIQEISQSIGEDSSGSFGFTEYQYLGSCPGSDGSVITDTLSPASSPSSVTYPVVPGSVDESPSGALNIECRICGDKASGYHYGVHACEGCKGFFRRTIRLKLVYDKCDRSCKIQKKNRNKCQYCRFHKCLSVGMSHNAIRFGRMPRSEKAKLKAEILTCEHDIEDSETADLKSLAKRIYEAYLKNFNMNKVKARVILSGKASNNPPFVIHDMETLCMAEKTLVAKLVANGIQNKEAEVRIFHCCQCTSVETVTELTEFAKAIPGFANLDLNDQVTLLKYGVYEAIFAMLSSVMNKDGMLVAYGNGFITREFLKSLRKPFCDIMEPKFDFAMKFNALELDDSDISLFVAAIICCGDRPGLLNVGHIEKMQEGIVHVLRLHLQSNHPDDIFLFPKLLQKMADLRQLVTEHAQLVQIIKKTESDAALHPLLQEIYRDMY

[5] = Cmax in rat at 1 mg/kg, po; assay type: ADME, organism-based; parameters: dose 1 mg/kg, route oral; conditions: in vivo
[6] = Total clearance in dog at 0.3 mg/kg, po; assay type: ADME, organism-based, Canis lupus familiaris; parameters: dose 0.3 mg/kg, route oral; conditions: in vivo
[7] = target: T3, Peroxisome proliferator-activated receptor alpha (Canis lupus familiaris, UniProt Q95N78); assay: Agonist activity at dog PPARalpha; assay type: functional
T3 sequence (Q95N78 whole entry): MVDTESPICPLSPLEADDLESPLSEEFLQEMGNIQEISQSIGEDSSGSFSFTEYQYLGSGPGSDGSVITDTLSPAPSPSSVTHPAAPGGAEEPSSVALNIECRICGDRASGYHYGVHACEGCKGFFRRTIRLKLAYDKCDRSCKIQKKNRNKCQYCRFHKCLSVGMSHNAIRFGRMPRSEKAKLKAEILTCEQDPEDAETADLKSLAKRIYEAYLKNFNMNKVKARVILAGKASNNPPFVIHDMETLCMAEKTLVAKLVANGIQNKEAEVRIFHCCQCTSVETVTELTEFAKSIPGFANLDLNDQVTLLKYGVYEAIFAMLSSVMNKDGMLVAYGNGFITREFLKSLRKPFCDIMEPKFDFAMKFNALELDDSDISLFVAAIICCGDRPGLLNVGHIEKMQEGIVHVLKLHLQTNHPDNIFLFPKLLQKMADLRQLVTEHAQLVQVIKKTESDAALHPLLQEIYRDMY

[8] = tested on: Canis familiaris; assay: Toxicity in high-fat diet fed dog assessed as change in body weight at 0.01 mg/kg, po administered QD for 1 week (reference value: 14.8 +/- 0.7 kg); assay type: organism-based, Canis lupus familiaris; parameters: dose 0.01 mg/kg, route oral; conditions: in vivo, 168 h
[9] = tested on: Canis familiaris; assay: Antidyslipidemic activity in high-fat diet fed dog assessed as decrease in free fatty acid at 0.03 mg/kg, po administered QD for 1 week (reference value: 0.624 +/- 0.057 mEq/L); assay type: functional, Canis lupus familiaris
[10] = tested on: Canis familiaris; assay: Antidyslipidemic activity in high-fat diet fed dog assessed as decrease in free fatty acid at 0.01 mg/kg, po administered QD for 1 week (reference value: 0.624 +/- 0.057 mEq/L); assay type: functional, Canis lupus familiaris
[11] = tested on: Canis familiaris; assay: Toxicity in high-fat diet fed dog assessed as change in body weight at 0.03 mg/kg, po administered QD for 1 week (reference value: 14.8 +/- 0.7 kg); assay type: organism-based, Canis lupus familiaris; parameters: dose 0.03 mg/kg, route oral; conditions: in vivo, 168 h
[12] = tested on: Canis familiaris; assay: Antidyslipidemic activity in high-fat diet fed dog assessed as decrease in total cholesterol at 0.003 mg/kg, po administered QD for 1 week (reference value: 205 +/- 6 mg/dL); assay type: functional, Canis lupus familiaris
[13] = target: T4, Peroxisome proliferator-activated receptor gamma (Canis lupus familiaris, UniProt Q4U3Q4); assay: Agonist activity at dog PPARgamma; assay type: functional
T4 sequence (Q4U3Q4 whole entry): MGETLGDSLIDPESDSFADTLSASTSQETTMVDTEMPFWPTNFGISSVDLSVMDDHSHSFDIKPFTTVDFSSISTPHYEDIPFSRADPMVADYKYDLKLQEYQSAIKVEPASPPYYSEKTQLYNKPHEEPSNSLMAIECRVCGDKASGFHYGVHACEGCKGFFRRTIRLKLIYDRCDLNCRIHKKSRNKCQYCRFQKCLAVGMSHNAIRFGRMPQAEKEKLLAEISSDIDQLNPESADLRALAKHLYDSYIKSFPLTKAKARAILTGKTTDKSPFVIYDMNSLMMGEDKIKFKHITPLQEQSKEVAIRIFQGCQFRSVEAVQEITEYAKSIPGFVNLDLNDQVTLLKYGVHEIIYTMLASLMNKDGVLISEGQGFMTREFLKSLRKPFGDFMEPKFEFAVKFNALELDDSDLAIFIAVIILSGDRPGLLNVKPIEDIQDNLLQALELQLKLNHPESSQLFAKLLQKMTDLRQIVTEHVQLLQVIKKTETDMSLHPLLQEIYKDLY

[14] = tested on: Canis familiaris; assay: Antidyslipidemic activity in high-fat diet fed dog assessed as decrease in non-HDL cholesterol at 0.01 mg/kg, po administered QD for 1 week (reference value: 75 +/- 5 mg/dL); assay type: functional, Canis lupus familiaris
[15] = Oral bioavailability in rat at 1 mg/kg; assay type: ADME, organism-based; conditions: in vivo
[16] = tested on: Canis familiaris; assay: Antidyslipidemic activity in high-fat diet fed dog assessed as decrease in total cholesterol at 0.01 mg/kg, po administered QD for 1 week (reference value: 205 +/- 6 mg/dL); assay type: functional, Canis lupus familiaris

EC50 [2]: 6.6 µM
EC50 [4]: 0.008 µM
Cmax [5]: 316 ng/mL
CL/F [6]: 0.333 mL/min/kg
EC50 [7]: 0.19 µM
EC50 [13]: 11 µM
bioavailability [15]: 47.6%
Structure (SMILES): Cc1nc(-c2ccc(Cl)cc2)sc1C(=O)N[C@H]1CCCN(c2cccc(C(=O)O)c2)C1
Activity [1]: 169 mg/dL
Activity [3]: 42 mg/dL
Activity [8]: 14.8 kg
Activity [9]: 0.576 mEq/L
Activity [10]: 0.651 mEq/L
Activity [11]: 14.8 kg
Activity [12]: 190 mg/dL
Activity [14]: 50 mg/dL
Activity [16]: 176 mg/dL
